The test system of the assay is operable TNBC. The assay is described as follows: Cisplatin-1 clinical trial: preoperative cisplatin monotherapy, pathologic response. In kind it is in vivo, human. As for the experimental part: We performed a clinical trial, Cisplatin-1, in which 28 patients with operable TNBC were treated preoperatively with cisplatin monotherapy. […] A second trial, Cisplatin-2, accrued 51 patients with TNBC who received the same preoperative cisplatin regimen as Cisplatin-1, but in combination with the angiogenesis inhibitor bevacizumab (Ryan, P. D., et al. Neoadjuvant cisplatin and bevacizumab in triple negative breast cancer (TNBC): Safety and Efficacy. J Clin Oncol 2009; 27: 551). Response rate in Cisplatin-2 were similar to Cisplatin-1. […] In Cisplatin-2, 8 patients carried a germline BRCA1 or BRCA2 mutation, of which 4 patients achieved a pCR or near pCR to the cisplatin-bevacizumab regimen. In both trials, all patients had research sequencing to determine their germline BRCA1 and BRCA2 status. Thus in some aspects of all the embodiments of the invention, the BRCA1 and BRCA2 status can be determined either simultaneously with or before the allelic imbalance or telomeric allelic imbalance analysis. In some aspects, only patients without BRCA1 or BRCA2 mutations are subjected to the NAI (number of allelic imbalance) or NtAI (number of telomeric allelic imbalance) assays or analyses. Cisplatin was used as an example of platinum comprising cancer therapies. A total of 28 mainly sporadic TNBC patients were treated with cisplatin monotherapy in the neo-adjuvant setting (Silver et al. (2010) J. Clin. Oncol. 28, 1145-1153). Cisplatin response was measured using the semiquantitative Miller-Payne score by pathological assessment of surgical samples after therapy (Ogston et al. (2003) Breast 12, 320-327). […] Therapeutic response was measured using the semiquantitative Miller-Payne grading system, which estimates the percent reduction in invasive tumor volume and cellularity based on pathological assessment of surgical samples after therapy (Ogston, K. N., et al., A new histological grading system to assess response of breastcancers to primary chemotherapy: prognostic significance and survival. Breast 2003; 12: 320-327). […]

On to `N.N.[Cl][Pt][Cl]` [cisplatin], for which, under “10 of 28 patients, preoperative cisplatin monotherapy”, the “patients with greater than 90% tumor reduction” value is 36%. In addition, where the note is “of 28 patients”, the “patients progressed on therapy” value was 4. Moreover, for the setting “of 28 patients, 2 of them had BRCA1-associated cancers”, the “pathologic complete response (pCR), number of women” value was found to be 6.

For the origin of these results see US11299782B2, “Methods for predicting anti-cancer response” (Children's Medical Center Corporation, priority 2012, dated 2022).
